The text below walks through data of PMC6900558 (Acta Pharmaceutica Sinica. B, 2019).

The term Ki denotes a measure of affinity in units of concentration, obtained from inhibition or displacement. For orientation: logD means lipophilicity at a set pH, counting ionised and neutral species. A high value points to higher lipophilicity.

For data set [1], the target named is T1, guinea pig σ1 receptor (Cavia porcellus, UniProt Q60492). The following applies: read-out: σ1R Kd or Ki; Kd or Ki not specified; cited from earlier work.
For data set [2], the target named is T2, σ1R (Mus musculus, UniProt O55242). Description: In vivo PET-CT imaging with [^11C]HCC0929 in mice brain. Also on record: species or system mice (BALB/c).
Another data set concerns the target guinea pig σ2 receptor. The following applies: read-out: σ2R Ki; cited from earlier work.
The target of data set [3] is T1, guinea pig σ1 receptor. Description: Ex vivo σ1 receptor binding assay. The following applies: for Selectivity (σ2R/σ1R): ratio of σ2R Ki to σ1R Ki.
Data set [4] addresses T2, σ1R. Description: In vivo PET-CT imaging with [^11C]HCC0923 in mice brain. Also on record: species or system mice (BALB/c). The following applies: self-blocking, 12.5 mg/kg i.v. 5 min before tracer.
A further data set can be described thus: Experimental logD. Type of data set: physicochemical. The following applies: PBS (aqueous phase; partition solvent not stated), pH 7.4.

The structures appear in SMILES notation. Like-named read-outs stand apart in the source and are kept apart here.

T1 sequence (Q60492 whole entry): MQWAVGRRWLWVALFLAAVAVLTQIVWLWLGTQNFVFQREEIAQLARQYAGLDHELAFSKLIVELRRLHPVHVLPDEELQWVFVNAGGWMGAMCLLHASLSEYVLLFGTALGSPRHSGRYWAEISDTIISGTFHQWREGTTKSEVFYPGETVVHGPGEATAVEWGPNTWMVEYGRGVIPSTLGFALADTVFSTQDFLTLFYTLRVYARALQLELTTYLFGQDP
T2 sequence (O55242 whole entry): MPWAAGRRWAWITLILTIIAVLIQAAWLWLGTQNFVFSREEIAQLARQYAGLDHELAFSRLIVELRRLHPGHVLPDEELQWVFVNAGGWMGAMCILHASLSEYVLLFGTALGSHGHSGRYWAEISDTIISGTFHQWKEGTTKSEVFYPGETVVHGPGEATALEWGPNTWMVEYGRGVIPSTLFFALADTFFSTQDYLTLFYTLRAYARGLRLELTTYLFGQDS

Consider `CCCN1CCC=C(c2cc(-c3ccc(C)cc3)no2)C1` [PD 144418], for which the Ki is 4.3 ± 0.1 nM on guinea pig σ1 receptor [1] and 1380 ± 179 nM on guinea pig σ2 receptor. The “reduction of [^11C]HCC0929 binding in mice brain” value on σ1R [2] (pretreatment 2.99 mg/kg i.v., change between peak at ∼5 min and lowest at 60 min) is on record as about 67%.

For `COc1ccc(-n2nc(OCCCN3CCCCC3)ccc2=O)cc1` [compound 13, 2-(4-Methoxyphenyl)-6-(3-(piperidin-1-yl)propoxy)pyridazin-3(2H)-one], at guinea pig σ1 receptor [3], the affinity corresponds to a Ki of 10.3 ± 1.1 nM and the “Selectivity (σ2R/σ1R)” value is 111.3. Also, the “reduction in [^11C]HCC0923 brain uptake” value at σ1R [4] is about 54%. In addition, in the data set “Experimental logD”, the logD is 0.89 ± 0.06.

`CN1CCN(CCCOc2ccc(=O)n(-c3ccc(Cl)c(Cl)c3)n2)CC1` [compound 15, 2-(3,4-Dichlorophenyl)-6-(3-(4-methylpiperazin-1-yl)propoxy)pyridazin-3(2H)-one]: on guinea pig σ1 receptor [3], the affinity corresponds to a Ki of 5.6 ± 0.7 nM and the “Selectivity (σ2R/σ1R)” value turned out to be 272.8. Besides, the “reduction in [^11C]HCC0929 mice brain uptake” value on σ1R [2] (self-blocking, 2.88 mg/kg i.v. 5 min before tracer) was about 58%. The compound further had a logD in the data set “Experimental logD” of 1.73 ± 0.08.
